Entries after “also recorded” stand apart in the source; their conditions may differ.
Columns and labels:
DU145 cells = assay: MTT assay (cytotoxicity), DU145 cells; type: cell-based; conditions: DU145 cells, 72 h, Table 4.2
How it was run: (§1)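 Cells grown in RPMI 1640 with 10% FBS were seeded at 6-7×10^3 cells/well and left overnight. They were then exposed to compound or DMSO vehicle for 72 h in fresh medium. Viability was measured by MTT, in triplicate, with each experiment repeated at least twice.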

[1] = system: endogenous AR-Vs in 22Rv1 cells; assay: PSA-luc reporter assay in androgen-starved 22Rv1 cells (endogenous LBD-truncated AR variants); conditions: androgen-starved 3 days, 24 h exposure
Experimental: NT, LNCaP cells were transiently transfected with pIRES vector, PSA-luc and pRL-TK. […] Cells were then transiently transfected with PSA-Luc and pRL-TK and exposed to DMSO or compounds for 24 h, in triplicate. NT, not transfected with PSA-luc.
The cells were androgen-starved for 3 days and transfected with PSA-Luc and pRL-TK plasmids. NT, cells were transfected with empty vector. Cells were exposed to vehicle control or compounds for 24 h.

LNCaP cells = assay: Western blot analysis of apoptosis in LNCaP cells; type: cell-based; conditions: whole medium, 24 h
Experimental: Experiments were in duplicate and repeated three times. […] LNCaP cells in whole medium were exposed to DMSO vehicle control or compounds for 24 h.

22Rv1 cells = assay: Western blot analysis of apoptosis in 22Rv1 cells; type: cell-based; conditions: phenol red-free medium+10% CS-FBS, 24 h
Source text: A) The 22Rv1 cells express substantial level of AR-Vs, which include AR-V7 and other AR variants lacking the LBD. The ARs were probed by N-terminal directed AR antibody (N20, Santa Cruz); B) The 22Rv1 cells were androgen-starved (in phenol red-free medium+10% CS-FBS) for 3 days to ensure the full-length AR expressed in 22Rv1 are not activated. The 22Rv1 cells were subsequently co-transfected with PSA-luc and pRL-TK plasmids. […] Cells in phenol red-free medium+10% CS-FBS were exposed to DMSO or compounds for 24 h and harvested for Western blot analysis.

AR-v7 in LNCaP cells = molecular target: T1, AR-v7 in LNCaP cells (Homo sapiens, UniProt P10275); assay: PSA-luc reporter assay in LNCaP cells transiently transfected with pIRES-AR-v7; conditions: 24 h
T1 sequence (P10275 1-644 isoform P10275-3): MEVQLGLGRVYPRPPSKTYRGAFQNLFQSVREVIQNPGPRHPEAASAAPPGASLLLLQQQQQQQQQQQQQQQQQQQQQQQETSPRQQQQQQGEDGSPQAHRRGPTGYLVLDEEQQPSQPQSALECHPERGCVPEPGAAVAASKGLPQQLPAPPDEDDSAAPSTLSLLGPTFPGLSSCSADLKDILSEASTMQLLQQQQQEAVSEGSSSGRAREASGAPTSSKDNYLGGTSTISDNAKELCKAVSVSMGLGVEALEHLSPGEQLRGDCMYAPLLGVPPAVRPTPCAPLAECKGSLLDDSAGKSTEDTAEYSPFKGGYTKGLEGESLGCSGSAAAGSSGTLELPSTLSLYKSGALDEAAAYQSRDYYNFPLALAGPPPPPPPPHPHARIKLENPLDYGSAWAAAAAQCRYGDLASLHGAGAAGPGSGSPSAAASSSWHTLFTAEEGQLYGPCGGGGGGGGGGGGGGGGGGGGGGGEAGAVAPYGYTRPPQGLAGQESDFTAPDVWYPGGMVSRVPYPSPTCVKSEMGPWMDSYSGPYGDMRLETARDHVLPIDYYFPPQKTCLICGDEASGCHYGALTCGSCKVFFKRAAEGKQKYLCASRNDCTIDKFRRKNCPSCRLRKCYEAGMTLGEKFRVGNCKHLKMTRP
Experimental: NT, LNCaP cells were transiently transfected with pIRES vector, PSA-luc and pRL-TK. […] Cells were then transiently transfected with PSA-Luc and pRL-TK and exposed to DMSO or compounds for 24 h, in triplicate.

[2] = molecular target: T2, H874Y mutant of full-length AR in 22Rv1 cells (Homo sapiens, UniProt P10275, H875Y); assay: PSA-luc reporter assay in 22Rv1 cells, DHT-induced (endogenous H874Y full-length AR); type: cell-based
T2 sequence (P10275 1-920 H875Y): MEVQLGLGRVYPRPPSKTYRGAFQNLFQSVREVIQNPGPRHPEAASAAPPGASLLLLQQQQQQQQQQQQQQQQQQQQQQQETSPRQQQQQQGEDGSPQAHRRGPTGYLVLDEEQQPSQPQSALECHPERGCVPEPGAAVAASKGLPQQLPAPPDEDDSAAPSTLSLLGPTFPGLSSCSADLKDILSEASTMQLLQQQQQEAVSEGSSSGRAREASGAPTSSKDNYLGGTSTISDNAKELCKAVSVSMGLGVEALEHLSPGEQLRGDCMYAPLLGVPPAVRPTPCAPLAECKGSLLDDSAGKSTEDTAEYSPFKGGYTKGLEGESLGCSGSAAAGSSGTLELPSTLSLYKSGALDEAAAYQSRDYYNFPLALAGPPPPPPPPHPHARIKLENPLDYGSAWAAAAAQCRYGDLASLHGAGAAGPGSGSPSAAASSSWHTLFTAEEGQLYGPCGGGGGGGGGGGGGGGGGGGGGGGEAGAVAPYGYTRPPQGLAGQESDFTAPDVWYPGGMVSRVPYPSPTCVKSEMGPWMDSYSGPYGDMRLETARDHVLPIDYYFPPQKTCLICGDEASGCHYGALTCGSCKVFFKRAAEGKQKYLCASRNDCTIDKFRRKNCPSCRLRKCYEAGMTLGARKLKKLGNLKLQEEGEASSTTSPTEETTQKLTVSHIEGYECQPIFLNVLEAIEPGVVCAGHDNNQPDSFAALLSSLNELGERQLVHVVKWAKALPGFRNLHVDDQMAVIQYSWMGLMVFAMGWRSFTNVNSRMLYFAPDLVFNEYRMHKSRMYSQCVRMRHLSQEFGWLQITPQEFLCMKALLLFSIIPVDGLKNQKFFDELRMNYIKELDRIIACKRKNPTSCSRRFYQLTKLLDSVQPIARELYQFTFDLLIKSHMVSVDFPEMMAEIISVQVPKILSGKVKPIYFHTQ

[3] = MTT assay (cytotoxicity), 22Rv1 cells; type: cell-based; conditions: human, 22Rv1 cells
How it was run: as §1

O=C(Nc1cccc(C(F)(F)F)c1)Nc1ccc([N+](=O)[O-])c(C(F)(F)F)c1 [Compound 442]
IC50 (DU145 cells): 1.5 µM
activity against constitutive activation of endogenous AR-Vs in 22Rv1 cells (PSA-luc) [1]: significantly suppressed; also recorded: active
apoptosis in LNCaP cells (LNCaP cells): induced apoptosis
apoptosis in 22Rv1 cells (22Rv1 cells): induced apoptosis

N#Cc1ccc(NC(=O)Nc2cccc(C(F)(F)F)c2)cc1C(F)(F)F [Compound 467]
IC50 (DU145 cells): 1.6 µM
activity against constitutive activation of endogenous AR-Vs in 22Rv1 cells (PSA-luc) [1]: significantly suppressed; also recorded: active
apoptosis in LNCaP cells (LNCaP cells): induced apoptosis
apoptosis in 22Rv1 cells (22Rv1 cells): induced apoptosis

N#Cc1ccc(NC(=O)Nc2cccc(C(F)(F)F)c2)cc1Cl [Compound 492]
IC50 (DU145 cells): 5.1 µM

O=C(N/C=C/c1cccc(C(F)(F)F)c1)Nc1ccncn1 [Compound 562]
activity in LNCaP cells with forced expression of AR-v7 (PSA-luc) (AR-v7 in LNCaP cells): remain active
activity against constitutive activation of endogenous AR-Vs in 22Rv1 cells (PSA-luc) [1]: remain active; also recorded: greater inhibitory activity than EPI-001
inhibition of DHT-induced AR activation in 22Rv1 cells (PSA-luc) ([2]; 10 nM DHT, 24 h): good activity

O=C(Nc1ccc(Br)nc1)Nc1cc(C(F)(F)F)cc(C(F)(F)F)c1 [Compound 566]
activity against constitutive activation of endogenous AR-Vs in 22Rv1 cells (PSA-luc) [1]: active; also recorded: greater inhibitory activity than EPI-001
IC50 at 72 h ([3]; 72 h, Table 4.1): 1.1 µM

O=C(Nc1cccc(C(F)(F)F)c1)Nc1ccc(NC(=O)c2ccccc2F)c(C(F)(F)F)c1 [Compound 746]
activity in LNCaP cells with forced expression of AR-v7 (PSA-luc) (AR-v7 in LNCaP cells): remain active
activity against constitutive activation of endogenous AR-Vs in 22Rv1 cells (PSA-luc) [1]: remain active; also recorded: greater inhibitory activity than EPI-001
IC50 at 72 h ([3]; 72 h treatment, Table 6.1): 2.2 µM
inhibition of DHT-induced AR activation in 22Rv1 cells (PSA-luc) ([2]; 10 nM DHT, 24 h): suppressed; also recorded: good activity
inhibition of DHT-induced AR activation in 22Rv1 cells (PSA-luc) ([2]; 1 μM): showed inhibitory activity

— patent publication US20170273922A1, “UREA AND BIS-UREA BASED COMPOUNDS AND ANALOGUES THEREOF USEFUL IN THE TREATMENT OF ANDROGEN RECEPTOR MEDIATED DISEASES OR DISORDERS” (THE ROYAL INSTITUTION FOR THE ADVACEMENT OF LEARNING/MCGILL …, priority 2014, published 2017)
